Numbers after ± are expanded uncertainties.
Conditions: 323.14 K, Liquid, Vibrating tube method

FC(C(F)(F)F)C(F)(F)F [1,1,1,2,3,3,3-heptafluoropropane]
mass density (4100 kPa): 1311 ± 1.5 kg/m3
mass density (4120 kPa): 1311.1 ± 1.5 kg/m3
mass density (4140 kPa): 1311.5 ± 1.5 kg/m3
mass density (4170 kPa): 1311.8 ± 1.5 kg/m3
mass density (4190 kPa): 1312 ± 1.5 kg/m3
mass density (4220 kPa): 1312.3 ± 1.5 kg/m3
mass density (4240 kPa): 1312.4 ± 1.5 kg/m3
mass density (4270 kPa): 1312.8 ± 1.5 kg/m3
mass density (4290 kPa): 1313.1 ± 1.5 kg/m3
mass density (4310 kPa): 1313.2 ± 1.5 kg/m3
mass density (4330 kPa): 1313.5 ± 1.5 kg/m3
mass density (4360 kPa): 1313.8 ± 1.5 kg/m3
mass density (4380 kPa): 1313.9 ± 1.5 kg/m3
mass density (4400 kPa): 1314.2 ± 1.5 kg/m3
mass density (4420 kPa): 1314.6 ± 1.5 kg/m3
mass density (4440 kPa): 1314.6 ± 1.5 kg/m3
mass density (4470 kPa): 1314.9 ± 1.5 kg/m3
mass density (4500 kPa): 1315.2 ± 1.5 kg/m3
mass density (4510 kPa): 1315.3 ± 1.5 kg/m3
mass density (4540 kPa): 1315.5 ± 1.5 kg/m3
mass density (4560 kPa): 1315.8 ± 1.5 kg/m3
mass density (4590 kPa): 1316 ± 1.5 kg/m3
mass density (4610 kPa): 1316.2 ± 1.5 kg/m3
mass density (4640 kPa): 1316.6 ± 1.5 kg/m3
mass density (4660 kPa): 1316.8 ± 1.5 kg/m3
mass density (4690 kPa): 1317.1 ± 1.5 kg/m3
mass density (4710 kPa): 1317.3 ± 1.5 kg/m3
mass density (4740 kPa): 1317.6 ± 1.5 kg/m3
mass density (4960 kPa): 1319.7 ± 1.5 kg/m3
mass density (4980 kPa): 1320.1 ± 1.5 kg/m3
mass density (5020 kPa): 1320.3 ± 1.5 kg/m3
mass density (5040 kPa): 1320.6 ± 1.5 kg/m3
mass density (5070 kPa): 1320.9 ± 1.5 kg/m3
mass density (5100 kPa): 1321.1 ± 1.5 kg/m3
mass density (5130 kPa): 1321.4 ± 1.5 kg/m3
mass density (5150 kPa): 1321.7 ± 1.5 kg/m3
mass density (5180 kPa): 1321.7 ± 1.5 kg/m3
mass density (5200 kPa): 1322 ± 1.5 kg/m3
mass density (5220 kPa): 1322.3 ± 1.5 kg/m3
mass density (5250 kPa): 1322.6 ± 1.5 kg/m3
mass density (5280 kPa): 1322.9 ± 1.5 kg/m3
mass density (5310 kPa): 1323.2 ± 1.5 kg/m3
mass density (5330 kPa): 1323.3 ± 1.5 kg/m3
mass density (5360 kPa): 1323.7 ± 1.5 kg/m3
mass density (5390 kPa): 1323.9 ± 1.5 kg/m3
mass density (5420 kPa): 1324.1 ± 1.5 kg/m3
mass density (5440 kPa): 1324.3 ± 1.5 kg/m3
mass density (5470 kPa): 1324.7 ± 1.5 kg/m3
mass density (5490 kPa): 1324.9 ± 1.5 kg/m3
mass density (5520 kPa): 1325.2 ± 1.5 kg/m3
mass density (5540 kPa): 1325.4 ± 1.5 kg/m3
mass density (5570 kPa): 1325.7 ± 1.5 kg/m3
mass density (5600 kPa): 1325.9 ± 1.5 kg/m3
mass density (5630 kPa): 1326.2 ± 1.5 kg/m3
mass density (5650 kPa): 1326.4 ± 1.5 kg/m3
mass density (5670 kPa): 1326.6 ± 1.5 kg/m3
mass density (5960 kPa): 1329.4 ± 1.5 kg/m3
mass density (5990 kPa): 1329.5 ± 1.5 kg/m3
mass density (6010 kPa): 1329.7 ± 1.5 kg/m3
mass density (6030 kPa): 1330 ± 1.5 kg/m3
mass density (6050 kPa): 1330 ± 1.5 kg/m3
mass density (6080 kPa): 1330.3 ± 1.5 kg/m3
mass density (6100 kPa): 1330.6 ± 1.5 kg/m3
mass density (6120 kPa): 1330.7 ± 1.5 kg/m3
mass density (6140 kPa): 1330.8 ± 1.5 kg/m3
mass density (6160 kPa): 1331.1 ± 1.5 kg/m3
mass density (6180 kPa): 1331.2 ± 1.5 kg/m3
mass density (6200 kPa): 1331.4 ± 1.5 kg/m3
mass density (6230 kPa): 1331.8 ± 1.5 kg/m3
mass density (6240 kPa): 1331.8 ± 1.5 kg/m3
mass density (6270 kPa): 1332 ± 1.5 kg/m3
mass density (6290 kPa): 1332.4 ± 1.5 kg/m3
mass density (6310 kPa): 1332.4 ± 1.5 kg/m3
mass density (6330 kPa): 1332.6 ± 1.5 kg/m3
mass density (6350 kPa): 1333 ± 1.5 kg/m3
mass density (6380 kPa): 1333.1 ± 1.5 kg/m3
mass density (6390 kPa): 1333.3 ± 1.5 kg/m3
mass density (6410 kPa): 1333.5 ± 1.5 kg/m3
mass density (6463 kPa): 1333.8 ± 1.5 kg/m3
mass density (6556 kPa): 1334.6 ± 1.5 kg/m3
mass density (6581 kPa): 1334.8 ± 1.5 kg/m3
mass density (6778 kPa): 1336.5 ± 1.5 kg/m3
mass density (6803 kPa): 1336.7 ± 1.5 kg/m3
mass density (6825 kPa): 1337 ± 1.5 kg/m3
mass density (6840 kPa): 1337.1 ± 1.5 kg/m3
mass density (6865 kPa): 1337.3 ± 1.5 kg/m3
mass density (6881 kPa): 1337.4 ± 1.5 kg/m3
mass density (6903 kPa): 1337.7 ± 1.5 kg/m3
mass density (6923 kPa): 1337.8 ± 1.5 kg/m3
mass density (6947 kPa): 1338.1 ± 1.5 kg/m3
mass density (6974 kPa): 1338.2 ± 1.5 kg/m3
mass density (7006 kPa): 1338.7 ± 1.5 kg/m3
mass density (7056 kPa): 1338.9 ± 1.5 kg/m3
mass density (7083 kPa): 1339.2 ± 1.5 kg/m3
mass density (7103 kPa): 1339.4 ± 1.5 kg/m3
mass density (7124 kPa): 1339.5 ± 1.5 kg/m3
mass density (7147 kPa): 1339.7 ± 1.5 kg/m3
mass density (7168 kPa): 1339.9 ± 1.5 kg/m3
mass density (7194 kPa): 1340.2 ± 1.5 kg/m3
mass density (7215 kPa): 1340.4 ± 1.5 kg/m3
mass density (7245 kPa): 1340.6 ± 1.5 kg/m3
mass density (7268 kPa): 1340.7 ± 1.5 kg/m3
mass density (7292 kPa): 1341 ± 1.5 kg/m3
mass density (7328 kPa): 1341.3 ± 1.5 kg/m3
mass density (7350 kPa): 1341.5 ± 1.5 kg/m3
mass density (7375 kPa): 1341.7 ± 1.5 kg/m3
mass density (7395 kPa): 1341.7 ± 1.5 kg/m3
mass density (7423 kPa): 1342.1 ± 1.5 kg/m3
mass density (7444 kPa): 1342.2 ± 1.5 kg/m3
mass density (7468 kPa): 1342.4 ± 1.5 kg/m3
mass density (7492 kPa): 1342.6 ± 1.5 kg/m3
mass density (7516 kPa): 1342.8 ± 1.5 kg/m3
mass density (7540 kPa): 1343.1 ± 1.5 kg/m3
mass density (7566 kPa): 1343.2 ± 1.5 kg/m3
mass density (7592 kPa): 1343.5 ± 1.5 kg/m3
mass density (7619 kPa): 1343.7 ± 1.5 kg/m3
mass density (7640 kPa): 1344 ± 1.5 kg/m3
mass density (7661 kPa): 1344.2 ± 1.5 kg/m3
mass density (7683 kPa): 1344.2 ± 1.5 kg/m3
mass density (7702 kPa): 1344.3 ± 1.5 kg/m3
mass density (7719 kPa): 1344.5 ± 1.5 kg/m3
mass density (7741 kPa): 1344.7 ± 1.5 kg/m3
mass density (7761 kPa): 1344.8 ± 1.5 kg/m3
mass density (7781 kPa): 1345 ± 1.5 kg/m3
mass density (7801 kPa): 1345.1 ± 1.5 kg/m3
mass density (7818 kPa): 1345.3 ± 1.5 kg/m3
mass density (7837 kPa): 1345.4 ± 1.5 kg/m3
mass density (7859 kPa): 1345.7 ± 1.5 kg/m3
mass density (7878 kPa): 1345.9 ± 1.5 kg/m3
mass density (7903 kPa): 1346 ± 1.5 kg/m3
mass density (7924 kPa): 1346 ± 1.5 kg/m3
mass density (7964 kPa): 1346.4 ± 1.5 kg/m3
mass density (8025 kPa): 1347 ± 1.5 kg/m3
mass density (8049 kPa): 1347.2 ± 1.5 kg/m3
mass density (8068 kPa): 1347.2 ± 1.5 kg/m3
mass density (8087 kPa): 1347.4 ± 1.5 kg/m3
mass density (8101 kPa): 1347.6 ± 1.5 kg/m3
mass density (8118 kPa): 1347.7 ± 1.5 kg/m3
mass density (8142 kPa): 1347.8 ± 1.5 kg/m3
mass density (8162 kPa): 1348.1 ± 1.5 kg/m3
mass density (8181 kPa): 1348.2 ± 1.5 kg/m3
mass density (8197 kPa): 1348.3 ± 1.5 kg/m3
mass density (8219 kPa): 1348.6 ± 1.5 kg/m3
mass density (8234 kPa): 1348.6 ± 1.5 kg/m3
mass density (8250 kPa): 1348.9 ± 1.5 kg/m3
mass density (8266 kPa): 1348.7 ± 1.5 kg/m3
mass density (8284 kPa): 1349 ± 1.5 kg/m3
mass density (8300 kPa): 1349.3 ± 1.5 kg/m3
mass density (8316 kPa): 1349.2 ± 1.5 kg/m3
mass density (8385 kPa): 1349.8 ± 1.5 kg/m3
mass density (8410 kPa): 1350.2 ± 1.5 kg/m3
mass density (8432 kPa): 1350.1 ± 1.5 kg/m3
mass density (8450 kPa): 1350.4 ± 1.5 kg/m3
mass density (8914 kPa): 1353.9 ± 1.5 kg/m3
mass density (8936 kPa): 1354.2 ± 1.5 kg/m3
mass density (8952 kPa): 1354.1 ± 1.5 kg/m3
mass density (8977 kPa): 1354.5 ± 1.5 kg/m3
mass density (8991 kPa): 1354.6 ± 1.5 kg/m3
mass density (9010 kPa): 1354.7 ± 1.5 kg/m3
mass density (9030 kPa): 1354.9 ± 1.5 kg/m3
mass density (9051 kPa): 1354.9 ± 1.5 kg/m3
mass density (9072 kPa): 1355.2 ± 1.5 kg/m3
mass density (9092 kPa): 1355.3 ± 1.5 kg/m3
mass density (9115 kPa): 1355.4 ± 1.5 kg/m3
mass density (9133 kPa): 1355.7 ± 1.5 kg/m3
mass density (9154 kPa): 1355.8 ± 1.5 kg/m3
mass density (9171 kPa): 1355.9 ± 1.5 kg/m3
mass density (9191 kPa): 1356.1 ± 1.5 kg/m3
mass density (9214 kPa): 1356.3 ± 1.5 kg/m3
mass density (9238 kPa): 1356.3 ± 1.5 kg/m3
mass density (9264 kPa): 1356.7 ± 1.5 kg/m3
mass density (9290 kPa): 1356.9 ± 1.5 kg/m3
mass density (9305 kPa): 1357 ± 1.5 kg/m3
mass density (9326 kPa): 1357.1 ± 1.5 kg/m3
mass density (9347 kPa): 1357.2 ± 1.5 kg/m3
mass density (9371 kPa): 1357.4 ± 1.5 kg/m3
mass density (9389 kPa): 1357.5 ± 1.5 kg/m3
mass density (9411 kPa): 1357.8 ± 1.5 kg/m3
mass density (9432 kPa): 1357.9 ± 1.5 kg/m3
mass density (9459 kPa): 1358.1 ± 1.5 kg/m3
mass density (9483 kPa): 1358.2 ± 1.5 kg/m3
mass density (9503 kPa): 1358.4 ± 1.5 kg/m3
mass density (9521 kPa): 1358.4 ± 1.5 kg/m3
mass density (9543 kPa): 1358.6 ± 1.5 kg/m3
mass density (9559 kPa): 1358.9 ± 1.5 kg/m3
mass density (9574 kPa): 1358.9 ± 1.5 kg/m3
mass density (9596 kPa): 1359 ± 1.5 kg/m3
mass density (9618 kPa): 1359.2 ± 1.5 kg/m3
mass density (9639 kPa): 1359.5 ± 1.5 kg/m3
mass density (9657 kPa): 1359.5 ± 1.5 kg/m3
mass density (9681 kPa): 1359.8 ± 1.5 kg/m3
mass density (9700 kPa): 1359.9 ± 1.5 kg/m3
mass density (9913 kPa): 1361.5 ± 1.5 kg/m3
mass density (9929 kPa): 1361.6 ± 1.5 kg/m3
mass density (9948 kPa): 1361.8 ± 1.5 kg/m3
mass density (9976 kPa): 1361.9 ± 1.5 kg/m3
mass density (9997 kPa): 1362.1 ± 1.5 kg/m3
mass density (10019 kPa): 1362.3 ± 1.5 kg/m3
mass density (10043 kPa): 1362.2 ± 1.5 kg/m3
mass density (10066 kPa): 1362.5 ± 1.5 kg/m3
mass density (10083 kPa): 1362.6 ± 1.5 kg/m3
mass density (10105 kPa): 1362.8 ± 1.5 kg/m3
mass density (10130 kPa): 1363 ± 1.5 kg/m3
mass density (10153 kPa): 1363.3 ± 1.5 kg/m3
mass density (10170 kPa): 1363.3 ± 1.5 kg/m3
